Data from US20210346506A1, “PRODRUG OF ITRACONAZOLE AND USES THEREOF” (priority 2020, published 2021).

Tests used:
[1] = Compound stability test in mouse blood; format: in vitro ADME; settings: for half-life at 1 μM: male, CD-1, in vitro half-life in mouse blood; for half-life at 1 μM / Remaining Percentages (%): 37° C., 1 μM
Experimental: (§1) One (1) mM test compound working solution was prepared in DMSO. One (1) mM propantheline working solution was prepared in acetonitrile, wherein propantheline was used as positive control in this assay.
(§2) Ten (10) μL of each test compound solution and the control compound solution were respectively added into a 96 deep well plate, and 40 μL of acetonitrile:water (V/V=1:1) was added to each well to dilute the 1 mM test compound solution to 200 μM working solution.
(§3) Mouse blood (male CD-1 mouse blood, Pharmaron, Lot# PH-ADME-Mouse-20180329) or human blood (Pharmaron, Lot# PH-ADME-Human-20180329) of 398 μL was added to each well of an incubation plate, and then the incubation plate was pre-warmed at 37° C. for 15 minutes. After the pre-incubation, 2 μL of 200 μM working solution prepared above was spiked to the pre-warmed 398 μL blood to reach a final concentration of 1 μM. The final concentration of DMSO was 0.1% and the final concentration of acetonitrile was 0.2%. The assay was performed in duplicate.
(§4) The incubation plate was incubated at 37° C. water bath with shaking at 50 rpm, and aliquots of 50 μL were taken from each well of the incubation plate at 0, 10, 30, 60, 90, 120 and 180 minutes.
(§5) The reaction was stopped by the addition of 50 μL of pure water. The plate was vortexed for 30 seconds at 1,000 rpm and then added with 300 μL of cold acetonitrile containing internal standards (100 nM aprozolam, 200 nM caffeine, 100 nM tolbutamide).
(§6) All samples were vortexed for 10 minutes, followed by centrifugation at 14,000 rpm for 15 minutes to precipitate proteins. 100 μL of each supernatant was transferred to a new plate, and diluted with ultrapure water according to the LC-MS signal response and peak shape.
(§7) Samples were analyzed by LC-MS/MS.
(§8) • LC system: ACQUITY UPLC® I-Class • MS analysis: Waters XEVO® TQ-D with an ESI interface • Column temperature: 40° C. • Injection volume: 3 μL • Column: Waters XSelect HSS T3 C18, 2.5 μm, 2.1×50 mm column • Mobile phase: 0.1% formic acid in water (A) and 0.1% formic acid in acetonitrile (B)
(§9) • Ion source: Turbo spray • Ionization model: ESI • Scan type: MRM • Cone gas: 150 L/h • Desolvation gas: 1000 L/h • Desolvation temperature: 500° C. • Capillary voltage: 3.00 KV
(§10) All calculations were carried out using Microsoft Excel. Peak area ratios were determined from extracted ion chromatograms, and percent compounds remaining at each time point were calculated by the following equation:
(§11) Remaining Percentaget min(%)=Peak Area Ratiot min/Peak Area Ratio0 min×100, where Peak Area Ratiot min referred to peak area ratio of control and test compounds at t min; and Peak Area Ratio0 min referred to peak area ratio of control and test compounds at zero time point. The in vitro half-life (in vitro t1/2) was determined from the slope value: In vitro T1/2=−(0.693/k).

[2] = Compound stability test in human blood; format: in vitro ADME; settings: for Remaining Percentages (%) / half-life at 1 μM: 37° C., 1 μM; for half-life at 1 μM: in vitro half-life in human blood
Experimental: as §1, §2, §3, §4, §5, §6, §7, §8, §9, §10, §11

[3] = Pharmacokinetic study of itraconazole release in mice after intravenous and oral dosing of Compound 3; format: in vivo, mouse; settings: for Plasma itraconazole Concentration (ng/mL): mice, individual mice
Experimental: Compound 3 was dissolved in DMSO:PEG400:water (1:4:5, v/v/v) with a final concentration of 0.2 mg/ml or 0.5 mg/ml. The 0.2 mg/ml solution was used for intravenous dosing, and the 0.5 mg/ml solution was for oral dosing.
Three male C57BL/6 mice were intravenously administered with Compound 3 at a dose of 1.0 mg/kg, and blood samples were collected at 2 min, 15 min, 30 min, 1 h, 2 h, 4 h, 6 h, 8 h, and 24 h post administration.
Three male C57BL/6 mice were orally given Compound 3 at a dose of 5.0 mg/kg, and blood samples were collected at 15 min, 30 min, 1 h, 2 h, 4 h, 6 h, 8 h, and 24 h post administration.
(§12) And dose levels were corrected in PK parameter calculation due to the salt factor.
(§13) The blood samples were subject to LC-MS/MS analysis, to monitor the plasma concentrations of both the parent compound and Itraconazole.
(§14) Column: Waters XSELECT HSS T3 2.5 μm 2.1×50 mm
(§15) Mobile phase: 5% Acetonitrile in Water (0.1% Formic acid) (A) and 95% Acetonitrile in Water (0.1% Formic acid) (B)
(§16) Gradient: flow rate at 0.6 mL/min
(§17) AB Sciex Triple Quad 5500 LC/MS/MS instrument (Serial NO. BB212611510)
(§18) Quantification: Internal Standard Method

[4] = relatively low dose; cited from earlier work
[5] = Pharmacokinetic study of itraconazole release in mice after intravenous and oral dosing of Compound 6; format: in vivo, mouse; settings: for Plasma itraconazole Concentration (ng/mL): mice, individual mice
Experimental: Compound 6 was dissolved in DMSO:PEG400:water (1:4:5, v/v/v) with a final concentration of 0.2 mg/ml or 0.5 mg/ml. The 0.2 mg/ml solution was used for intravenous dosing, and the 0.5 mg/ml solution was for oral dosing.
Three male C57BL/6 mice were intravenously administered with Compound 6 at a dose of 1.0 mg/kg, and blood samples were collected at 2 min, 15 min, 30 min, 1 h, 2 h, 4 h, 6 h, 8 h, and 24 h post administration.
Three male C57BL/6 mice were orally given Compound 6 at a dose of 5.0 mg/kg, and blood samples were collected at 15 min, 30 min, 1 h, 2 h, 4 h, 6 h, 8 h, and 24 h post administration.
as §12, §13, §14, §15, §16, §17, §18

Row | SMILES | half-life at 1 μM [1] | Remaining Percentages (%) ([1]; mouse blood, 0 min) | Remaining Percentages (%) ([1]; mouse blood, 10 min) | Remaining Percentages (%) ([1]; mouse blood, 30 min) | Remaining Percentages (%) ([1]; mouse blood, 60 min) | Remaining Percentages (%) ([1]; mouse blood, 90 min) | Remaining Percentages (%) ([1]; mouse blood, 120 min) | Remaining Percentages (%) ([1]; mouse blood, 180 min) | Remaining Percentages (%) ([2]; human blood, 0 min) | Remaining Percentages (%) ([2]; human blood, 10 min) | Remaining Percentages (%) ([2]; human blood, 30 min) | Remaining Percentages (%) ([2]; human blood, 60 min) | Remaining Percentages (%) ([2]; human blood, 90 min) | Remaining Percentages (%) ([2]; human blood, 120 min) | Remaining Percentages (%) ([2]; human blood, 180 min) | half-life at 1 μM [2] | other results
1 | CCC(C)n1ncn(-c2ccc(N3CCN(c4ccc(OCC5COC(Cn6c[n+](COC(C)=O)cn6)(c6ccc(Cl)cc6Cl)O5)cc4)CC3)cc2)c1=O.[Cl-] (stereo not drawn) [Compound 3] | 59 min | 100% | 88.1% | 67.1% | 46.3% | 30.3% | 24.4% | 12.0% | 100% | 94.0% | 82.3% | 67.5% | 61.5% | 55.3% | 34.3% | 123 min | stability in blood, in words ([1]; mouse blood): more stable among exemplary compounds; stability in blood, in words ([2]; human blood): more stable among exemplary compounds; abnormal clinical symptoms during the test ([3]; male C57BL/6 mice, 1.0 mg/kg intravenous or 5.0 mg/kg oral Compound 3): No mice were observed with abnormal clinical symptoms; Plasma itraconazole Concentration (ng/mL) ([3]; IV Dose 0.860 mg/kg Compound 3, 8 h, 0.86 mg/kg): BLOQ; Plasma itraconazole Concentration (ng/mL) ([3]; IV Dose 0.860 mg/kg Compound 3, 24 h): BLOQ; Plasma itraconazole Concentration (ng/mL) ([3]; PO Dose 4.30 mg/kg Compound 3, 24 h): BLOQ
2 | CCC(C)n1ncn(-c2ccc(N3CCN(c4ccc(OCC5COC(Cn6cncn6)(c6ccc(Cl)cc6Cl)O5)cc4)CC3)cc2)c1=O (stereo not drawn) [Itraconazole] |  |  |  |  |  |  |  |  |  |  |  |  |  |  |  |  | adverse effect, in words [4]: no observed adverse effect
3 | CCOC(=O)OC[n+]1cnn(CC2(c3ccc(Cl)cc3Cl)OCC(COc3ccc(N4CCN(c5ccc(-n6cnn(C(C)CC)c6=O)cc5)CC4)cc3)O2)c1.[Cl-] (stereo not drawn) [Compound 6] | 10 min | 100% | 51.5% | 12.6% | 3.10% | 0.595% | 0.186% | 0.232% | 100% | 94.2% | 77.3% | 55.3% | 41.1% | 34.0% | 15.2% | 67.4 min | abnormal clinical symptoms during the test ([5]; male C57BL/6 mice, 1.0 mg/kg intravenous or 5.0 mg/kg oral Compound 6): No mice were observed with abnormal clinical symptoms; Plasma itraconazole Concentration (ng/mL) ([5]; IV Dose 0.822 mg/kg Compound 6, 8 h, 0.822 mg/kg): BLOQ; Plasma itraconazole Concentration (ng/mL) ([5]; IV Dose 0.822 mg/kg Compound 6, 24 h): BLOQ; Plasma itraconazole Concentration (ng/mL) ([5]; PO Dose 4.11 mg/kg Compound 6, 24 h): BLOQ
4 | CCC(C)n1ncn(-c2ccc(N3CCN(c4ccc(OCC5COC(Cn6c[n+](CC)cn6)(c6ccc(Cl)cc6Cl)O5)cc4)CC3)cc2)c1=O.[Cl-] (stereo not drawn) [Compound 2] | 11.8 min | 100% | 40.1% | 16.2% | 3.79% | 0.90% | 0.175% | 0.00% | 100% | 60.3% | 26.1% | 8.47% | 3.59% | 1.66% | 0.30% | 15.6 min | 
5 | CCC(C)n1ncn(-c2ccc(N3CCN(c4ccc(OCC5COC(Cn6c[n+](COC(=O)OC(C)C)cn6)(c6ccc(Cl)cc6Cl)O5)cc4)CC3)cc2)c1=O.[Cl-] (stereo not drawn) [Compound 8] | 21.9 min | 100% | 71.2% | 40.2% | 14.8% | 7.0% | 3.99% | 1.03% | 100% | 31.6% | 1.40% | 0.785% | 0.616% | BLOD | BLOD | 6.03 min | 
